Test results: paper PMC6896172, “Successful Targeting of the Warburg Effect in Prostate Cancer by Glucose-Conjugated 1,4-Naphthoquinones” (Cancers, 2019)

Columns and labels:
[1] = system: PC-3 cells; test: MTT cytotoxicity assay in PC-3 cells; type: cell-based, human; conditions: for IC50: Homo sapiens, PC-3, 48 h, 48 h of treatment; for SI [IC50(PNT2) / IC50(PC-3)]: ratio of IC50 in PNT2 cells to IC50 in PC-3 cells, 48 h
From the text: (§1) For general experiments human prostate cancer cell lines PC-3 and DU145 (docetaxel-resistant, androgen-independent, AR-FL(−), AR-V7(−)), 22Rv1 and VCaP (docetaxel-sensitive, androgen-independent, AR-FL(+), AR-V7(+), and LNCaP (docetaxel sensitive, androgen-dependent, AR-FL(+), AR-V7(−) were used. PC-3, 22Rv1, LNCaP cells as well as the human prostate non-cancer cells PNT2 and RWPE-1 were purchased from ATCC (Manassas, VA, USA). VCaP were purchased from ECACC (Salisbury, UK). The human fibroblast cell line MRC-9, the human embryonic kidney cell line HEK 293T, as well as the human umbilical vascular endothelial cell line HUVEC were kindly donated by Prof. Dr. Dr. med. Sonja Loges (University Medical Center Hamburg-Eppendorf, Hamburg, Germany). Cells were cultured according to the manufacturers’ instructions and were recently authenticated by a commercial service (Multiplexion, Heidelberg, Germany). Culture conditions are described in the Supplementary Information.
(§2) MTT (3-(4,5-dimethylthiazol-2-yl)-2,5-diphenyltetrazolium bromide) cytotoxicity assay was used for the evaluation of cytotoxicity of the compounds or their combinations. Experiments were performed as previously described. In brief, 6000 cells/well were seeded in 96-well plate, incubated overnight, and treated with the drugs in 100 µL/well of 10% FBS/RPMI media containing 2 g/L of D-(+)-glucose for 48 h, unless otherwise stated. For 2 h treatment the cells were treated with the drugs for 2 h in the culture media, then the media was exchanged to fresh drug-free media (100 µL/well) containing MTT reagent and the further steps were performed as previously described.
(§3) Table S4. Cytotoxic activity of the synthesized compounds. Cytotoxicity was determined in human prostate cancer PC-3 cells versus human prostate non-cancer
(§4) PNT2 cells after 48 h of treatment, as well as its ratio. IC50 was evaluated using MTT assay. SI–selectivity index. #–the IC50s in both cell lines were >100 µM.
(§5) Anisomycin was used as a reference substance.
(§6) No Formula IC50(PC-3) IC50(PNT2) SI […]

[2] = system: PNT2 cells; test: MTT cytotoxicity assay in PNT2 cells; type: cell-based, human; conditions: 48 h of treatment
From the text: as §1, §2, §3, §4, §5, §6

[3] = system: MRC-9 cells; test: MTT cytotoxicity assay in MRC-9 cells; type: cell-based; conditions: Homo sapiens, MRC9, 48 h of treatment, non-cancer
Experimental: (§7) Dr. Dr. med. Sonja Loges (University Medical Center Hamburg-Eppendorf, Hamburg, Germany). Cells were cultured according to the manufacturers’ instructions and were recently authenticated by a commercial service (Multiplexion, Heidelberg, Germany). Culture conditions are described in the Supplementary Information.
as §2

[4] = system: RWPE-1 cells; test: MTT cytotoxicity assay in RWPE-1 cells; type: cell-based; conditions: Homo sapiens, 48 h of treatment, non-cancer
Experimental: as §7, §2

[5] = system: HEK293 cells; test: MTT cytotoxicity assay in HEK293 cells; type: cell-based; conditions: Homo sapiens, 48 h of treatment, non-cancer
Experimental: as §7, §2

[6] = system: HUVEC cells; test: MTT cytotoxicity assay in HUVEC cells; type: cell-based; conditions: Homo sapiens, 48 h of treatment, non-cancer
Experimental: as §7, §2

[7] = system: VCaP cells; test: MTT cytotoxicity assay in VCaP cells; type: cell-based; conditions: Homo sapiens, 48 h of treatment, cancer
Experimental: as §7, §2

[8] = system: DU145 cells; test: MTT cytotoxicity assay in DU145 cells; type: cell-based; conditions: Homo sapiens, DU-145, 48 h of treatment, cancer
Experimental: as §7, §2

[9] = system: 22Rv1 cells; test: MTT cytotoxicity assay in 22Rv1 cells; type: cell-based, human; conditions: Homo sapiens
Experimental: as §7, §2

[10] = system: LNCaP cells; test: MTT cytotoxicity assay in LNCaP cells; type: cell-based; conditions: Homo sapiens, 48 h of treatment, cancer
Experimental: as §7, §2

[11] = system: 22Rv1 cells; test: Trypan blue exclusion viability assay; type: cell-based; conditions: Homo sapiens, 48 h of treatment
Experimental: The in vitro effect of the drugs on cell viability and proliferation was evaluated using trypan blue exclusion assay as described before with minor modifications. In brief, cells (0.2 × 10^6 cells/well) were seeded in 12-well plates, incubated overnight, the media was replaced with fresh media (1 mL/well) and treated with the drugs for 48 h. Cells were harvested by trypsination and the viability was measured using trypan blue staining and Beckman Coulter Vi-CELL (Beckman Coulter, Krefeld, Germany).

[12] = system: 22Rv1 cells; test: Colony formation assay; type: cell-based, human; conditions: 22Rv1 cells treated with non-cytotoxic concentrations for 48 h
Experimental: Colony formation assays were performed as described before. In brief, cells were treated with the drugs for 48 h and then 100 alive cells were plated into each well of 6-well plates and incubated for 10 days. Surviving colonies were fixed, stained with Giemsa solution and counted.

[13] = system: 22Rv1 cells; test: Western blotting of treated cells; type: cell-based, human
Experimental: Preparation of protein extracts for western blotting was performed as described previously. In brief, for western blotting, 1 × 10^6 cells/well were seeded in Petri dishes (ø 6 cm TC Dish (Sarstedt, Numbrecht, Germany) in 5 mL/dish), incubated overnight and treated with drugs in 5 mL/dish for an indicated time. Cells were harvested using a cell scraper, pelleted, and resuspended in the lysis buffer containing protease and phosphatase inhibitors. Further sample preparation and western blotting were performed as previously described with slight modifications. Relative optical density of the detected bands was quantified with Quantity One 4.6 software (Bio-Rad, Hercules, CA, USA). The primary and secondary antibodies used are listed in the Supplementary Information.

Row | Compound | IC50 [1] | SI [IC50(PNT2) / IC50(PC-3)] [1] | IC50 ([2]; Homo sapiens, PNT2, 48 h) | other results
1 | COC1=CC(=O)c2ccccc2C1=O [Compound 1] | 9.33 µM | 1.55 | 14.5 µM | 
2 | CC1(C)OC2OC3C(COC4=CC(=O)c5ccccc5C4=O)OC(C)(C)OC3C2O1 (centres unmarked) [Compound 2] | 13.1 µM | 1.24 | 16.2 µM | 
3 | CC1(C)OC2OC(C(O)COC3=CC(=O)c4ccccc4C3=O)C(O)C2O1 (centres unmarked) [Compound 3] | 24.2 µM | 1.28 | 31.1 µM | 
4 | O=C1C=C(OCC2OC(O)C(O)C(O)C2O)C(=O)c2ccccc21 (centres unmarked) [Compound 4] | > 100 µM |  | > 100 µM | 
5 | COC1=CC(=O)c2c(O)cccc2C1=O [Compound 5] | 4.46 µM | 1.31 | 5.84 µM | 
6 | CC1(C)OC2OC3C(COC4=CC(=O)c5c(O)cccc5C4=O)OC(C)(C)OC3C2O1 (centres unmarked) [Compound 6] | 4.51 µM | 0.91 | 4.12 µM | 
7 | O=C1C(OC[C@H]2OC(O)[C@H](O)[C@@H](O)[C@@H]2O)=CC(=O)c2c(O)cccc21 (some centres unmarked) [Compound 8] |  |  | 79.3 µM | IC50 [2]: 73.7 µM; IC50 [3]: 31.6 µM; IC50 [4]: 49.8 µM; IC50 [5]: 40 µM; IC50 [6]: 73 µM; IC50 [7]: 56.7 µM; IC50 [8]: 10.6 µM; IC50 ([9]; 22Rv1, 48 h of treatment, cancer, read-out: IC50 (22Rv1)): 30.1 µM; IC50 ([9]; 22Rv1 cells, 2 h treatment, read-out: IC50 after 2 h of treatment): 92.4 µM; IC50 [10]: 20 µM; IC50 [11]: 19.4 µM; cancer cell colony formation [12]: suppress cancer cell colony formation; AR-FL and AR-V7 expression ([13]; 48 h treatment): downregulated both, AR full length (AR-FL) and AR-V7; LC3B-II and SQSTM1 levels (autophagy markers) ([13]; pre-cytotoxic and cytotoxic concentrations, 48 h): accumulation of both, LC3B-II and SQSTM1
8 | COC1=CC(=O)c2cccc(O)c2C1=O [Compound 9] | 2.85 µM | 1.42 | 4.05 µM | 
9 | CC1(C)OC2OC3C(COC4=CC(=O)c5cccc(O)c5C4=O)OC(C)(C)OC3C2O1 (centres unmarked) [Compound 10] | 4.16 µM | 1.53 | 6.37 µM | 
10 | COC1=CC(=O)c2c(O)ccc(O)c2C1=O [Compound 13] | 5.38 µM | 1.83 | 9.84 µM | 
11 | CC1(C)OC2OC3C(COC4=CC(=O)c5c(O)ccc(O)c5C4=O)OC(C)(C)OC3C2O1 (centres unmarked) [Compound 14] | 17.7 µM | 1.05 | 18.6 µM | 
12 | CC1(C)OC2OC(C(O)COC3=CC(=O)c4c(O)ccc(O)c4C3=O)C(O)C2O1 (centres unmarked) [Compound 15] | 5.46 µM | 1.03 | 5.65 µM | 
13 | O=C1C=C(OCC2OC(O)C(O)C(O)C2O)C(=O)c2c(O)ccc(O)c21 (centres unmarked) [Compound 16] | > 100 µM |  | > 100 µM | 
14 | CCc1c(O)c2c(c(O)c1OC)C(=O)C(OC)=CC2=O [Compound 17] | 21.8 µM | 0.57 | 12.5 µM | 
15 | CCc1c(O)c2c(c(O)c1OC)C(=O)C(OCC1OC(C)(C)OC3C1OC1OC(C)(C)OC13)=CC2=O (centres unmarked) [Compound 18] | 13.6 µM | 0.7 | 9.56 µM | 
16 | CCc1c(O)c2c(c(O)c1OC)C(=O)C(OCC(O)C1OC3OC(C)(C)OC3C1O)=CC2=O (centres unmarked) [Compound 19] | 27.9 µM | 1.49 | 41.7 µM | 
17 | CCc1c(O)c2c(c(O)c1OC)C(=O)C(OC[C@H]1OC(O)[C@H](O)[C@@H](O)[C@@H]1O)=CC2=O (some centres unmarked) [Compound 20] | 99 µM | 0.28 | 27.9 µM | 
18 | CCc1c(O)c2c(c(O)c1Cl)C(=O)C(OC)=CC2=O [Compound 21] | 31.6 µM | 0.87 | 27.4 µM | 
19 | CCc1c(O)c2c(c(O)c1Cl)C(=O)C(OCC1OC(C)(C)OC3C1OC1OC(C)(C)OC13)=CC2=O (centres unmarked) [Compound 22] | 4.24 µM | 0.7 | 2.98 µM | 
20 | CCc1c(O)c2c(c(O)c1Cl)C(=O)C(OCC(O)C1OC3OC(C)(C)OC3C1O)=CC2=O (centres unmarked) [Compound 23] | 7.35 µM | 0.71 | 5.21 µM | 
21 | CCc1c(O)c2c(c(O)c1Cl)C(=O)C(OC[C@H]1OC(O)[C@H](O)[C@@H](O)[C@@H]1O)=CC2=O (some centres unmarked) [Compound 24] | > 100 µM |  | > 100 µM | 
22 | COC1=CC(=O)c2c(O)c(Cl)c(Cl)c(O)c2C1=O [Compound 25] | 2.3 µM | 0.53 | 1.22 µM | 
23 | CC1(C)OC2OC3C(COC4=CC(=O)c5c(O)c(Cl)c(Cl)c(O)c5C4=O)OC(C)(C)OC3C2O1 (centres unmarked) [Compound 26] | 2.75 µM | 0.75 | 2.07 µM | 
24 | CC1(C)OC2OC(C(O)COC3=CC(=O)c4c(O)c(Cl)c(Cl)c(O)c4C3=O)C(O)C2O1 (centres unmarked) [Compound 27] | 3.47 µM | 1.29 | 4.47 µM | 
25 | O=C1C=C(OC[C@H]2OC(O)[C@H](O)[C@@H](O)[C@@H]2O)C(=O)c2c(O)c(Cl)c(Cl)c(O)c21 (some centres unmarked) [Compound 28] | > 100 µM |  | > 100 µM | 
